One data set concerns the target T1, ClpC1NTD (Mycolicibacterium smegmatis, UniProt A0R574).
T1 construct: M. smegmatis clpC1 NTD (1-148) was cloned in pET21a; hexahistidine (C); made in house; host or cells: E. coli BL21 (DE3) or Rosetta
As to the kind of experiment: Binding affinity by isothermal titration calorimetry (ITC). The conditions noted are these: ITC at 25 °C, 50 mM Tris pH 7.5, 100 mM NaCl, 2% DMSO, single binding site model. The protocol:
Binding affinities were determined using isothermal titration calorimetry (ITC).
ITC experiments were carried out using MicroCal PEAQ-ITC (Malvern) at 25 °C, whilst stirring at 750 rpm in a buffer containing 50 mM Tris pH 7.5, 100 mM NaCl. Each titration consisted of 19 injections with intervals of 120 s (the first injection of 0.4 µL followed by 18 injections of 2 µL). DMSO concentration was matched between cell and syringe to 2%. The data were fitted to a single binding site model with a fitted offset subtraction in the MicroCal PEAQ-ITC Analysis Software. Each titration was repeated at least two times. Titrations were performed with ligand in the syringe and protein in the cell. A control titration of ligand into buffer was performed in order to account for the heat of dilution. Titrations involving compounds with poorer solubility of the compound in buffer were performed with ligand in the cell and protein in the syringe. The following table 2 provides the results of the determination. Table 2: results for dissociation constant (KD) and Minimal Inhibitory Concentration (MIC)
Background: In ITC the heat of successive injections is recorded.

In another data set the test system is mycobacterial cell. Briefly: Minimal Inhibitory Concentration (MIC). The format is cell-based.
For data set [1] the following is noted: amide bond, 21-membered ring.
[2] abbreviates: the molecule shown is the open-chain precursor.
The mark [3] stands for this setting: the molecule shown is the open-chain precursor, DIC/HOAt/Et3N, DCM, 0.75 mM, 25.0 °C.

pKd: −log10 of the molar value. ≈ marks a conversion by molar mass, not a printed value. Where “and” joins values, the source holds several entries; their conditions need not be identical. Equal entries are not always repeated. Where two headings read alike, the source gives them in different places. Starred links: 1 amine or outer side, 2 acyl side, 3 side chain; linkers in the order of their positions; H or OH if unused. Non-standard residues stand in square brackets, D forms with d. Residues, ends and D or L forms follow the SMILES beside them. *: point of attachment. Trp(1-(1,1-Me2-allyl)) = C=CC(C)(C)n1cc(C[C@H](N)C(=O)O)c2ccccc21; Phe(βR-OMe) = CO[C@H](c1ccccc1)[C@H](N)C(=O)O; X4 = C/C=C/[C@@H](C)[C@H](N[*:1])C(=O)[*:2]; X2 = CN([C@@H](CCCO)C(=O)[*:2])[*:1]; NMeE = CN[C@@H](CCC(=O)O)C(=O)O; NMeL = CN[C@@H](CC(C)C)C(=O)O; NMeK = CN[C@@H](CCCCN)C(=O)O; tBu = CC(C)(C)*

T1 sequence (A0R574 1-148): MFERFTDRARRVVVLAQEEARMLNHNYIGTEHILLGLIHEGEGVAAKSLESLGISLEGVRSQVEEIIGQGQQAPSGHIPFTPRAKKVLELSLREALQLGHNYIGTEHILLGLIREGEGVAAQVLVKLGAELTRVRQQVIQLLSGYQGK

One may read the pKd as the Kd on a negative log10 scale, so that one unit is a factor of ten. As a reminder, the MIC is the lowest concentration found to suppress growth. Low readings indicate inhibition by little substance, high ones a need for much substance. For the compound `CC[C@H](C)[C@@H]1NC(=O)[C@H](CC(C)C)N(C)C(=O)[C@H](C(C)C)NC(=O)[C@H]([C@H](OC)c2ccccc2)NC(=O)[C@H](C)NC(=O)[C@H](CCCCN)N(C)C(=O)[C@H](Cc2c[nH]c3ccccc23)NC1=O` [CycloA_D9] (cyclo(W[NMeK]A[Phe(βR-OMe)]V[NMeL]I)), the pKd on ClpC1NTD was 5.55. Moreover, the MIC in the data set with mycobacterial cell was found to be 12 µM (≈ 11 µg/mL).
`CC[C@H](C)[C@@H]1NC(=O)[C@H](CC(C)C)N(C)C(=O)[C@H](C(C)C)NC(=O)[C@H]([C@H](OC)c2ccccc2)NC(=O)[C@H](C)NC(=O)[C@H](CCCCNC(=O)OC(C)(C)C)N(C)C(=O)[C@H](Cc2cn(C(=O)OC(C)(C)C)c3ccccc23)NC1=O` [H-Val-MeLeu-Ile-Trp(Boc)-MeLys(Boc)-Ala-Phe(3R-MeO)-OH]: the ring closure, crude yield in data set [1] (from H-Val-MeLeu-Ile-Trp(Boc)-MeLys(Boc)-Ala-Phe(3R-MeO)-OH, T3P/DIEA, DCM, 0.75 mM, 25.0 °C) came to 88%.
Consider `CC[C@H](C)[C@@H]1NC(=O)[C@H](CC(C)C)N(C)C(=O)[C@H](C(C)C)NC(=O)[C@H](Cc2ccccc2)NC(=O)[C@H](C)NC(=O)[C@H](CCCO)N(C)C(=O)[C@H](Cc2c[nH]c3ccccc23)NC1=O` [CylcoA_D4] (cyclo(AFV[NMeL]IW[X2])), for which the pKd on ClpC1NTD is 3.97. In the data set with mycobacterial cell, the MIC was greater than 30 µM.
In data set [1] (setting [2]), “H-Glu(TOTA-TMP)-Phe(3R-MeO)-Val-MeLeu-Ile-Trp(Boc)-MeLys(Boc)-OH?” registered a ring closure, crude yield of 65%.
In turn, “H-Val-MeLeu-Ile-Trp(Boc)-MeLys(Boc)-Glu(TOTA-(-)JQ1)-Phe(3R-MeO)-OH” gave a ring closure, crude yield in data set [1] (setting [2]) of 70%.
The compound `CC[C@H](C)[C@@H]1NC(=O)[C@H](CC(C)C)N(C)C(=O)[C@H](C(C)C)NC(=O)[C@H](Cc2ccccc2)NC(=O)[C@H](C)NC(=O)[C@H](CCCNC(=O)OC(C)(C)C)N(C)C(=O)[C@H](Cc2cn(C(=O)OC(C)(C)C)c3ccccc23)NC1=O` [H-Val-MeLeu-Ile-Trp(Boc)-MeOrn(Boc)-Ala-Phe-OH] yielded a ring closure, crude yield in data set [1] (from H-Val-MeLeu-Ile-Trp(Boc)-MeOrn(Boc)-Ala-Phe-OH, T3P/DIEA, DCM, 0.75 mM, 25.0 °C) of 98%.
As to `C=CC(C)(C)n1cc(C[C@@H]2NC(=O)[C@H]([C@H](C)/C=C/C)NC(=O)[C@H](CC(C)C)N(C)C(=O)[C@H](C(C)C)NC(=O)[C@H]([C@H](OC)c3ccccc3)NC(=O)[C@H](C)NC(=O)[C@H](CCCCN)N(C)C2=O)c2ccccc21` [CycloA_D17] (cyclo(A[Phe(βR-OMe)]V[NMeL][X4][Trp(1-(1,1-Me2-allyl))][NMeK])), in the data set on mycobacterial cell, the MIC is 20 µM (≈ 19.9 µg/mL).
“H-Val-MeLeu-Ile-Trp(prenyl)-MeLys(Boc)-Ala-Phe(3R-MeO)-OH” came in with a ring closure, crude yield in data set [1] (setting [3]) of 65%.
On ClpC1NTD, `CC[C@H](C)[C@@H]1NC(=O)[C@H](CC(C)C)N(C)C(=O)[C@H](C(C)C)NC(=O)[C@H](Cc2ccccc2)NC(=O)[C@H](C)NC(=O)[C@H](CCCO)N(C)C(=O)[C@H](Cc2ccc(OC(C)(C)C)cc2)NC1=O` [CycloA_D5a] (cyclo(V[NMeL]IY(tBu)[X2]AF)) had a pKd of 3.89. In the data set on mycobacterial cell, this compound yielded an MIC greater than 30 µM.
For the compound `CC[C@H](C)[C@@H]1NC(=O)[C@H](CCC(=O)OC(C)(C)C)N(C)C(=O)[C@H](C(C)C)NC(=O)[C@H]([C@H](OC)c2ccccc2)NC(=O)[C@H](C)NC(=O)[C@H](CCCCNC(=O)OC(C)(C)C)N(C)C(=O)[C@H](Cc2cn(C(=O)OC(C)(C)C)c3ccccc23)NC1=O` [H-Val-MeGlu(tBu)-Ile-Trp(Boc)-MeLys(Boc)-Ala-Phe(3R-MeO)-OH], the ring closure, crude yield in data set [1] (from H-Val-MeGlu(tBu)-Ile-Trp(Boc)-MeLys(Boc)-Ala-Phe(3R-MeO)-OH, T3P/DIEA, DCM, 0.75 mM, 25.0 °C) is 52%.
“H-Val-MeLeu-dehydroisonorleucine-Trp(prenyl)-MeLys(Boc)-Ala-Phe(3R-MeO)-OH” returned a ring closure, crude yield in data set [1] (setting [3]) of 81%.
In the case of “H-Val-MeLeu-Ile-Trp(Boc)-MeLys(Boc)-Glu(TOTA-SLF')-Phe(3R-MeO)-OH”, the ring closure, crude yield in data set [1] (setting [2]) stood at 54%.
`CC[C@H](C)[C@@H]1NC(=O)[C@H](CC(C)C)N(C)C(=O)[C@H](C(C)C)NC(=O)[C@H](Cc2ccccc2)NC(=O)[C@H](C)NC(=O)[C@H](CCCO[Si](C)(C)C(C)(C)C)N(C)C(=O)[C@H](Cc2cn(C(=O)OC(C)(C)C)c3ccccc23)NC1=O` [H-Val-MeLeu-Ile-Trp(Boc)-MeHnv(TBDMS)-Ala-Phe-OH] yielded a ring closure, crude yield in data set [1] (from H-Val-MeLeu-Ile-Trp(Boc)-MeHnv(TBDMS)-Ala-Phe-OH, T3P/DIEA, DCM, 0.75 mM, 25.0 °C) of 94%.
The compound `CC[C@H](C)[C@@H]1NC(=O)[C@H](CC(C)C)N(C)C(=O)[C@H](C(C)C)NC(=O)[C@H](Cc2ccccc2)NC(=O)[C@H](C)NC(=O)[C@H](CCC(=O)OC)N(C)C(=O)[C@H](Cc2ccc(OC(C)(C)C)cc2)NC1=O` [H-Val-MeLeu-Ile-Tyr(tBu)-MeGlu(Me)-Ala-Phe-OH] yielded a ring closure, crude yield in data set [1] (from H-Val-MeLeu-Ile-Tyr(tBu)-MeGlu(Me)-Ala-Phe-OH, T3P/DIEA, DCM, 0.75 mM, 25.0 °C) of 72%.
In turn, `C=CC(C)(C)n1cc(C[C@@H]2NC(=O)[C@H]([C@@H](C)CC)NC(=O)[C@H](CC(C)C)N(C)C(=O)[C@H](C(C)C)NC(=O)[C@H]([C@H](OC)c3ccccc3)NC(=O)[C@H](C)NC(=O)[C@H](CCCCN)N(C)C2=O)c2ccccc21` [CycloA_D11] (cyclo(A[Phe(βR-OMe)]V[NMeL]I[Trp(1-(1,1-Me2-allyl))][NMeK])) showed an MIC in the data set on mycobacterial cell of 20 µM (≈ 19.7 µg/mL).
Consider `CC[C@H](C)[C@@H]1NC(=O)[C@H](CC(C)C)N(C)C(=O)[C@H](C(C)C)NC(=O)[C@H](Cc2ccccc2)NC(=O)[C@H](C)NC(=O)[C@H](CCCCNC(=O)OC(C)(C)C)N(C)C(=O)[C@H](Cc2cn(C(=O)OC(C)(C)C)c3ccccc23)NC1=O` [H-Val-MeLeu-Ile-Trp(Boc)-MeLys(Boc)-Ala-Phe-OH], for which the ring closure, crude yield in data set [1] (from H-Val-MeLeu-Ile-Trp(Boc)-MeLys(Boc)-Ala-Phe-OH, T3P/DIEA, DCM, 0.75 mM, 25.0 °C) came to 75%.
In turn, `CC[C@H](C)[C@@H]1NC(=O)[C@H](CC(C)C)N(C)C(=O)[C@H](C(C)C)NC(=O)[C@H](Cc2ccccc2)NC(=O)[C@H](C)NC(=O)[C@H](CCCO)N(C)C(=O)[C@H](Cc2ccc(O)cc2)NC1=O` [CycloA_D5b] (cyclo(V[NMeL]IY[X2]AF)) gave a pKd at ClpC1NTD of 3.49.
In data set [1] (setting [3]), “H-Val-MeLeu-Ile-Trp(Boc)-MeLys(Boc)-Lys(Biotin)-Phe(3R-MeO)-OH” displayed a ring closure, crude yield of 72%.
With `CC[C@H](C)[C@@H]1NC(=O)[C@H](CCC(=O)O)N(C)C(=O)[C@H](C(C)C)NC(=O)[C@H]([C@H](OC)c2ccccc2)NC(=O)[C@H](C)NC(=O)[C@H](CCCCN)N(C)C(=O)[C@H](Cc2c[nH]c3ccccc23)NC1=O` [CycloA_D13] (cyclo(A[Phe(βR-OMe)]V[NMeE]IW[NMeK])), in the data set on mycobacterial cell, the MIC is greater than 200 µM.
As to `CC[C@H](C)[C@@H]1NC(=O)[C@H](CC(C)C)N(C)C(=O)[C@H](C(C)C)NC(=O)[C@H](Cc2ccccc2)NC(=O)[C@H](C)NC(=O)[C@H](CCC(=O)O)N(C)C(=O)[C@H](Cc2c[nH]c3ccccc23)NC1=O` [CycloA_D2] (cyclo(AFV[NMeL]IW[NMeE])), the pKd at ClpC1NTD was 3.65.
In the case of “H-Glu(TOTA-PMX-methylester)-Phe(3R-MeO)-Val-MeLeu-Ile-Trp(Boc)-MeLys(Boc)-OH”, the ring closure, crude yield in data set [1] (setting [2]) is 77% and 58%.
In turn, “H-Val-MeLeu-Ile-Trp(prenyl)-MeLys(Boc)-Ala-Phe-OH” yielded a ring closure, crude yield in data set [1] (setting [3]) of 78%.
In the data set with mycobacterial cell, `C=CC(C)(C)n1cc(C[C@@H]2NC(=O)[C@H]([C@@H](C)CC)NC(=O)[C@H](CC(C)C)N(C)C(=O)[C@H](C(C)C)NC(=O)[C@H](Cc3ccccc3)NC(=O)[C@H](C)NC(=O)[C@H](CCCCN)N(C)C2=O)c2ccccc21` [CycloA_D10] (cyclo(AFV[NMeL]I[Trp(1-(1,1-Me2-allyl))][NMeK])) displayed an MIC of 40 µM (≈ 38.2 µg/mL).
On to “H-Val-MeLeu-Ile-Trp(Boc)-MeLys(Boc)-Glu(TOTA-(+)JQ1)-Phe(3R-MeO)-OH”, for which, in data set [1] (setting [2]), the ring closure, crude yield is 64%.
The compound “H-Val-MeLeu-Ile-Trp(Boc)-MeLys(Boc)-Glu(TOTA-Biotin)-Phe(3R-MeO)-OH” returned a ring closure, crude yield in data set [1] (setting [3]) of 63%.

(Values after EP4089103A1, “CLPCP PROTEASE-BINDING CYCLIC HEPTAPEPTIDES” (priority 2021, dated 2022).)
